Here are results for 22 compounds from patent publication US20260224758A1, “ALPHA-SYNUCLEIN BINDERS AND METHODS OF USE” (Merck Sharp & Dohme LLC, priority 2023, published 2026).

The target of experiment [1] is aggregated beta amyloid in AD tissue (Homo sapiens, UniProt P05067). In words: Competitive radioligand binding to pathological aggregated beta amyloid in AD tissue (Assay 2), displacement of [^3H]-105. The note with it: Aβ-rich AD frontal cortex homogenate, [^3H]-105, Kd 11.0 nM.
Procedure: Frozen human brain samples of Alzheimer's disease (AD) were purchased from Analytic Biological Services Inc. The samples were post-mortem tissue from donors with clinical diagnosis of AD and much of the white matter was dissected out of the frontal cortex in order to enrich the tissue preparations for gray matter. Brain homogenates of gray matter enriched frontal cortex were prepared by homogenizing the tissue in ice cold Phosphate Buffered Saline (PBS), pH 7.4 at 80 mg wet weight tissue per 1 ml for 45 seconds at 4° C., on setting 16 of Polytron. The homogenate was further diluted with ice cold PBS to 30 mg wet weight tissue per 1 ml and homogenized for an additional minute as described above. Homogenates were aliquoted in 5 ml/tube and stored at −70° C. until use.
Radioligand [^3H]-105, prepared as described in ACS Med. Chem. Lett., Vol. 2, pages 498-502, was used in this assay.
For Assay 2 unlabeled test compounds were dissolved in DMSO at 10 mM. Dilutions of tests compounds to various concentrations were made in 100% DMSO at 1000× final assay concentration and 0.225 μl aliquots were dispensed into assay plates. Brain homogenates were diluted to 0.5 mg/ml from original 30 mg/ml volume in Assay Buffer, and 200 μl were added to the assay plate for a final concentration of 100 ug wet weight/assay well. [^3H]-105 was prepared at 10× final concentration in Assay Buffer plus 20% DMSO and 25 μl was added to the assay plate for final assay concentration of 3.0 nM. The plates were incubated at 37° C. for 90 minutes. Unbound and bound ligand were separated by filtration of bound onto GF/B filter plates (pre-treated for 30 min with 0.1% PEI) using a Packard Filtermate and washing away unbound with 2.5 mil ice cold 5 mM Tris at pH 7.4. Filter plates were dried for 1 hr at 57° C. and 50 μl Microscint was added to each well of the plate. The plates were counted for ^3H cpm for 1 min per well using PerkinElmer TopCount.
The target of experiment [2] is T1, triton-extracted alpha-synuclein from PD Tissue (Homo sapiens, UniProt P37840).
T1 construct: tissue Analytic Biological Services Inc; host or cells: human PD temporal cortex grey matter, Triton X-100 insoluble pellet
In words: Alpha-synuclein tissue homogenate binding assay (Assay 1), displacement of [^3H]-1000. The conditions noted are these: for Selectivity ratio (Assay 2/Assay 1): Aβ Tissue Ki / α-synuclein Tissue Ki; for Ki: read-out: α-synuclein Tissue Ki (Assay 1). As to the method:
Frozen human brain tissues from PD patients were purchased from Analytic Biological Services Inc. The samples were post-mortem tissues from donors with clinical diagnosis of late stage of PD. Alpha-synuclein, tau and amyloid burden was determined through a combination of immunohistochemistry on frozen thin coronal sections, as well as alpha Lisa-based quantification of protein levels in a detergent insoluble protein fraction. A tissue sample of temporal cortex was identified from one donor as having moderate to high alpha-synuclein burden, low amyloid and minimal to no tau pathology. The detergent insoluble fraction of temporal cortex from this patient was used to support homogenate binding studies. Grey matter was dissected out of the temporal cortex tissue with a dissecting blade and minced with fine dissecting scissors. […] Homogenates were centrifuged at 100,000×g for 45 minutes. The pellet was resuspended in TBS-TX buffer, using a Polytron at highest setting for 30 seconds at 4° C. Homogenates were centrifuged at 100,000×g for 45 minutes and the pellet was resuspended in TBS-TX buffer. A BCA protein assay was performed on the final homogenate to determine the protein concentration. […] For displacement a-synuclein binding assay, compounds and control were solvated in dimethyl sulfoxide (DMSO) and transferred using focused acoustic energy by an Echo 655 liquid handling instrument (Beckman Coulter, Indianapolis, IN) into designated wells of uniquely bar coded 96-well v-bottom low binding polypropylene microplates (Thermo Scientific, 249946). Compound dose response curves were prepared in a 10-point, 3-fold fashion within columns 2-11 of the microplate from high to low compound concentrations. […] Liquid-handling steps for dispensing insoluble fractions of PD brain homogenates and radioligand were performed using a Bravo automated liquid handling platform equipped with a 96LT disposable tip head (Agilent Technologies, Santa Clara. CA). […] The incubation was terminated by rapid filtration through UniFilter-96 GF/C microplates (pre-treated for 30 minutes with 0.2% Polyethylenimine at 4° C.) by using a FilterMate Harvester (PerkinElmer). […] The bottom of each UniFilter-96 GF/C microplate was adhesively sealed (PerkinElmer 6005199) prior to the addition of 50 μL MicroScint-20 liquid scintillation cocktail (PerkinElmer 6013621) to each well. A clear adhesive seal (TopSeal-A PLUS, PerkinElmer 6050185) was then applied to the top of each microplate and counted 1 minute/well on MicroBeta^2 system (PerkinElmer.

Setting [3] is: insoluble fraction of PD brain homogenate, [^3H]-1000 3.0 nM, Kd 0.90 nM.

The Ki is the dissociation constant of the complex between target and ligand, obtained from inhibition or displacement.

Like-named read-outs stand apart in the source and are kept apart here. A value given as a limit tells only on which side of the number the result lay.

aggregated beta amyloid in AD tissue, sequence (P05067 672-711 limits assumed): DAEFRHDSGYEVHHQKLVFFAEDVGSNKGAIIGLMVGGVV

On to `COC[C@H]1CN(c2ccccn2)CCN1c1ncc(/C=C/c2cnc3nc(C)cn3c2)cn1` [Example 19, (R,E)-6-(2-(2-(2-(methoxymethyl)-4-(pyridin-2-yl)piperazin-1-yl)pyrimidin-5-yl)vinyl)-2-methylimidazo[1,2-a]pyrimidine], for which the Ki in experiment [1] is at least 12000 nM; in experiment [2] (setting [3]) it was 1.4 nM. Besides, the “Selectivity ratio (Assay 2/Assay 1)” value in experiment [2] amounted to 8571.

With `COC[C@H]1CN(c2ncc(/C=C/c3ccc(-n4ccnc4)nc3)cn2)CCN1c1ccccn1` [Example 22, (R,E)-5-(2-(6-(1H-imidazol-1-yl)pyridin-3-yl)vinyl)-2-(3-(methoxymethyl)-4-(pyridin-2-yl)piperazin-1-yl)pyrimidine], the Ki amounted to 1300 nM in experiment [1] and 0.7 nM in experiment [2] (setting [3]). In addition, the “Selectivity ratio (Assay 2/Assay 1)” value in experiment [2] came out at 1857.

Turning to `COC[C@H]1CN(c2ccccn2)CCN1c1ncc(/C=C/c2ccc(-c3ncco3)nc2)cn1` [Example 20, (R,E)-2-(5-(2-(2-(2-(methoxymethyl)-4-(pyridin-2-yl)piperazin-1-yl)pyrimidin-5-yl)vinyl)pyridin-2-yl)oxazole], the Ki is at least 12000 nM in experiment [1] and 1.7 nM in experiment [2] (setting [3]). The “Selectivity ratio (Assay 2/Assay 1)” value in experiment [2] is listed as 7059.

Regarding `COC[C@H]1CN(c2ncc(C#Cc3ccc(-n4ccnc4)nc3)cn2)CCN1c1cncc(F)n1` [Example 69, (R)-5-((6-(1H-imidazol-1-yl)pyridin-3-yl)ethynyl)-2-(4-(6-fluoropyrazin-2-yl)-3-(methoxymethyl)piperazin-1-yl)pyrimidine], the Ki in experiment [1] was at least 1200 nM; in experiment [2] (setting [3]), 6.57 nM. In experiment [2], the “Selectivity ratio (Assay 2/Assay 1)” value turned out to be 183.

Consider `OC[C@H]1CN(c2ccncn2)CCN1c1ncc(/C=C/c2ccc(-n3ccnc3)nc2)cn1` [Example 24, (R,E)-(1-(5-(2-(6-(1H-imidazol-1-yl)pyridin-3-yl)vinyl)pyrimidin-2-yl)-4-(pyrimidin-4-yl)piperazin-2-yl)methanol], for which the Ki was 120 nM in experiment [1] and 0.5 nM in experiment [2] (setting [3]). The “Selectivity ratio (Assay 2/Assay 1)” value in experiment [2] was found to be 240.

Consider `COC[C@H]1CN(c2ncc(C#Cc3ccc(-n4ccnc4)nc3)cn2)CCN1c1nccc(F)n1` [Example 60, (R)-2-(4-(5-((6-(1H-imidazol-1-yl)pyridin-3-yl)ethynyl)pyrimidin-2-yl)-2-(methoxymethyl)piperazin-1-yl)-4-fluoropyrimidine], for which the Ki in experiment [1] is at least 1200 nM; in experiment [2] (setting [3]), 2.23 nM. Further, the “Selectivity ratio (Assay 2/Assay 1)” value in experiment [2] turned out to be 538.

Turning to `COC[C@H]1CN(c2cc(Cl)ncn2)CCN1c1ncc(/C=C/c2ccc(-n3ccnc3)nc2)cn1` [Example 14, (R,E)-5-(2-(6-(1H-imidazol-1-yl)pyridin-3-yl)vinyl)-2-(4-(6-chloropyrimidin-4-yl)-2-(methoxymethyl)piperazin-1-yl)pyrimidine], the Ki is at least 12000 nM in experiment [1] and 1.3 nM in experiment [2] (setting [3]). The “Selectivity ratio (Assay 2/Assay 1)” value in experiment [2] is reported as 9231.

In the case of `COC[C@H]1CN(c2ncc(C#Cc3ccc(N4CC(F)C4)nc3)cn2)CCN1c1ncccn1` [Example 68, (R)-5-((6-(3-fluoroazetidin-1-yl)pyridin-3-yl)ethynyl)-2-(3-(methoxymethyl)-4-(pyrimidin-2-yl)piperazin-1-yl)pyrimidine], the figures for the Ki in experiment [1] and in experiment [2] (setting [3]) were at least 1200 nM and 2.56 nM, respectively. Besides, the “Selectivity ratio (Assay 2/Assay 1)” value in experiment [2] was 469.

For `FCCOC[C@H]1CN(c2ncccn2)CCN1c1ncc(/C=C/c2ccc(-n3ccnc3)nc2)cn1` [Example 30, (R,E)-5-(2-(6-(1H-imidazol-1-yl)pyridin-3-yl)vinyl)-2-(2-((2-fluoroethoxy)methyl)-4-(pyrimidin-2-yl)piperazin-1-yl)pyrimidine], the values for the Ki in experiment [1] and in experiment [2] (setting [3]) were at least 12000 nM and 1 nM, respectively. Moreover, the “Selectivity ratio (Assay 2/Assay 1)” value in experiment [2] worked out at 12000.

Regarding `FCCOCCOC[C@H]1CN(c2ncc(C#Cc3cnc(-c4cncnc4)nc3)cn2)CCN1c1ncncn1` [Example 79, (R)-5-((2-(3-((2-(2-fluoroethoxy)ethoxy)methyl)-4-(1,3,5-triazin-2-yl)piperazin-1-yl)pyrimidin-5-yl)ethynyl)-2,5′-bipyrimidine], the Ki in experiment [2] (setting [3]) worked out at 5.42 nM.

With `OC[C@H]1CN(c2ncc(/C=C/c3ccc(-n4ccnc4)nc3)cn2)CCN1c1ncccn1` [Example 1, (R,E)-(4-(5-(2-(6-(1H-imidazol-1-yl)pyridin-3-yl)vinyl)pyrimidin-2-yl)-1-(pyrimidin-2-yl)piperazin-2-yl)methanol], the Ki in experiment [2] (setting [3]) came out at 1.6 nM.

With `Cn1cc(-c2ncc(C#Cc3cnc(N4CCN(c5ncncn5)[C@@H](COCF)C4)nc3)cn2)cn1` [Example 95, (R)-2-(2-((fluoromethoxy)methyl)-4-(5-((2-(1-methyl-1H-pyrazol-4-yl)pyrimidin-5-yl)ethynyl)pyrimidin-2-yl)piperazin-1-yl)-1,3,5-triazine], the Ki in experiment [2] turned out to be 1.3 nM.

For `COC[C@H]1CN(c2ncc(C#Cc3ccc(N4CCC(n5nccn5)CC4)nc3)cn2)CCN1c1ncccn1` [Example 76, (R)-5-((6-(4-(2H-1,2,3-triazol-2-yl)piperidin-1-yl)pyridin-3-yl)ethynyl)-2-(3-(methoxymethyl)-4-(pyrimidin-2-yl)piperazin-1-yl)pyrimidine], in experiment [2] (setting [3]), the Ki was 1.15 nM.

With `COC[C@H]1CN(c2ncccn2)CCN1c1ncc(/C=C/c2ccc(-n3ccnc3)nc2)cn1` [Example 28, (R,E)-5-(2-(6-(1H-imidazol-1-yl)pyridin-3-yl)vinyl)-2-(2-(methoxymethyl)-4-(pyrimidin-2-yl)piperazin-1-yl)pyrimidine], in experiment [2], the “Selectivity ratio (Assay 2/Assay 1)” value was found to be 3077. The Ki in experiment [2] (setting [3]) stood at 1.3 nM.

`COC[C@H]1CN(c2ncc(C#Cc3ccc(-n4cnnc4)nc3)c(F)n2)CCN1c1ccncn1` [Example 58, (R)-5-((6-(4H-1,2,4-triazol-4-yl)pyridin-3-yl)ethynyl)-4-fluoro-2-(3-(methoxymethyl)-4-(pyrimidin-4-yl)piperazin-1-yl)pyrimidine]: the Ki in experiment [2] (setting [3]) came to 1.67 nM.

`FCCOCCOC[C@H]1CN(c2ncc(C#Cc3ccc(-c4cnco4)nc3)cn2)CCN1c1ncncn1` [Example 48, (R)-5-(5-((2-(3-((2-(2-fluoroethoxy)ethoxy)methyl)-4-(1,3,5-triazin-2-yl)piperazin-1-yl)pyrimidin-5-yl)ethynyl)pyridin-2-yl)oxazole]: in experiment [2] (setting [3]), the Ki was determined as 0.897 nM.

Consider `FCCOC[C@H]1CN(c2ncc(/C=C/c3ccc(-n4ccnc4)nc3)cn2)CCN1c1ncccn1` [Example 3, (R,E)-5-(2-(6-(1H-imidazol-1-yl)pyridin-3-yl)vinyl)-2-(3-((2-fluoroethoxy)methyl)-4-(pyrimidin-2-yl)piperazin-1-yl)pyrimidine], for which the “Selectivity ratio (Assay 2/Assay 1)” value in experiment [2] is recorded as 8000. Besides, the Ki in experiment [2] (setting [3]) is 0.5 nM.

In the case of `COC[C@H]1CN(c2ncc(C#Cc3cnc(-c4cnn(CCF)c4)nc3)cn2)CCN1c1ncc(F)cn1` [Example 88, (R)-5-fluoro-2-(4-(5-((2-(1-(2-fluoroethyl)-1H-pyrazol-4-yl)pyrimidin-5-yl)ethynyl)pyrimidin-2-yl)-2-(methoxymethyl)piperazin-1-yl)pyrimidine], the inhibitory constant (Ki) in experiment [2] (setting [3]) stood at 0.99 nM.

For `COC[C@H]1CN(c2ncc(C#Cc3ccc(-c4cnn(CCF)c4)nc3)cn2)CCN1c1ncncn1` [Example 47, (R)-2-(4-(5-((6-(1-(2-fluoroethyl)-1H-pyrazol-4-yl)pyridin-3-yl)ethynyl)pyrimidin-2-yl)-2-(methoxymethyl)piperazin-1-yl)-1,3,5-triazine], in experiment [2] (setting [3]), the Ki stood at 0.694 nM.

Consider `COC[C@H]1CN(c2ncc(C#Cc3cnc(-c4cnn(C)c4)nc3)cn2)CCN1c1cc(F)ncn1` [Example 94, (R)-2-(4-(6-fluoropyrimidin-4-yl)-3-(methoxymethyl)piperazin-1-yl)-5-((2-(1-methyl-1H-pyrazol-4-yl)pyrimidin-5-yl)ethynyl)pyrimidine], for which the Ki in experiment [2] (setting [3]) is 0.76 nM.

As for `COC[C@H]1CN(c2ncc(C#Cc3cnc(-c4cnn(CCF)c4)nc3)cn2)CCN1c1ccc(F)cn1` [Example 85, (R)-2-(1-(2-fluoroethyl)-1H-pyrazol-4-yl)-5-((2-(4-(5-fluoropyridin-2-yl)-3-(methoxymethyl)piperazin-1-yl)pyrimidin-5-yl)ethynyl)pyrimidine], the Ki in experiment [2] (setting [3]) came to 1.05 nM.

As to `COC[C@H]1CN(c2ncc(C#Cc3cnc(-c4cnn(CCF)c4)nc3)cn2)CCN1c1ccncn1` [Example 54, (R)-2-(1-(2-fluoroethyl)-1H-pyrazol-4-yl)-5-((2-(3-(methoxymethyl)-4-(pyrimidin-4-yl)piperazin-1-yl)pyrimidin-5-yl)ethynyl)pyrimidine], the Ki in experiment [2] (setting [3]) worked out at 0.91 nM.
